Tests used:
[1] = Kcat in bacterium VhM42
[2] = Km in bacterium VhM42

## CCCCCCCCC(O)CC(C)=O (configuration not stated)
[1]
  k cat: 1.67e-05 s⁻¹
[2]
  Km: 190 µM
